In article PMC6327044, “A chemical biology screen identifies a vulnerability of neuroendocrine cancer cells to SQLE inhibition” (Nature Communications, 2019):

Assays:
Experiment in all cases: cells
Design in all cases: species or system panel of 482 human cancer cell lines; ATPLite luminescence growth inhibition after treatment, nine-point dilution curve, 482 cancer cell lines, 384-well
Conditions in all cases: 72 h, recommended growth medium
MKN45_STOMACH = test system: MKN45_STOMACH
In short: (§1)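 Growth inhibition was measured across a panel of 482 cancer cell lines. Cells were plated at 500 cells per well in recommended growth media in black, tissue culture treated 384-well plates, centrifuged to equilibrate, and incubated 24 h before dosing. Compounds were tested as nine-point dilution curves for 72 h, with viability read by ATPLite luminescence relative to DMSO-treated controls.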

[1] = test system: MM1R_HAEMATOPOIETIC_AND_LYMPHOID_TISSUE
In short: as §1

SNU503_LARGE_INTESTINE = test system: SNU503_LARGE_INTESTINE
In short: as §1

MORCPR_LUNG = test system: MORCPR_LUNG
In short: as §1

[2] = test system: OCILY8_HAEMATOPOIETIC_AND_LYMPHOID_TISSUE
In short: as §1

NCIH2122_LUNG = test system: NCIH2122_LUNG
In short: as §1

[3] = test system: U2932_HAEMATOPOIETIC_AND_LYMPHOID_TISSUE
In short: as §1

SNU61_LARGE_INTESTINE = test system: SNU61_LARGE_INTESTINE
In short: as §1

HCC2218_BREAST = test system: HCC2218_BREAST
In short: as §1

TT_OESOPHAGUS = test system: TT_OESOPHAGUS
In short: as §1

HCC1195_LUNG = test system: HCC1195_LUNG
In short: as §1

EVSAT_BREAST = test system: EVSAT_BREAST
In short: as §1

IM95_STOMACH = test system: IM95_STOMACH
In short: as §1

HCC1588_LUNG = test system: HCC1588_LUNG
In short: as §1

NCIH841_LUNG = test system: NCIH841_LUNG
In short: as §1

[4] = test system: WSUNHL_HAEMATOPOIETIC_AND_LYMPHOID_TISSUE
In short: as §1

LU24_LUNG = test system: LU24_LUNG
In short: as §1

GI50 (MKN45_STOMACH): 0.605 µM | GI50 [1]: 8.87 µM | GI50 (SNU503_LARGE_INTESTINE): 0.598 µM | GI50 (SNU61_LARGE_INTESTINE): 0.28 µM | GI50 (HCC2218_BREAST): 7.17 µM | GI50 (HCC1195_LUNG): 2740 µM | GI50 (HCC1588_LUNG): 5.16 µM
SMILES: CCN(C/C=C/C#CC(C)(C)C)Cc1cccc(OCc2cc(-c3ccsc3)cs2)c1 [NB-598]
GI50 (MORCPR_LUNG): 2.69 µM | GI50 [2]: 9.19 µM | GI50 (NCIH2122_LUNG): 7.51 µM | GI50 [3]: 1.29 µM | GI50 (TT_OESOPHAGUS): 0.296 µM | GI50 (EVSAT_BREAST): 32.4 µM | GI50 (IM95_STOMACH): 0.0118 µM | GI50 (NCIH841_LUNG): 13.2 µM | GI50 [4]: 0.0218 µM | GI50 (LU24_LUNG): 6.57 µM
